# From patent US12133530B2, “Herbicidal mixtures comprising L-glufosinate or its salt and at least one VLCFA inhibitor” (BASF SE, priority 2017, dated 2024)
# How the values were obtained:
# [1] = test system: ABUTH (Abutilon theophrasti); assay: Post-emergence greenhouse pot test, herbicidal activity (scale 0 to 100); format: in vivo
# Protocol: (§1) However, the weed control afforded by the compounds, mixtures or compositions is not limited to these species. The analysis of synergism or antagonism between the mixtures or compositions was determined using Colby's equation.
# (§2) The culture containers used were plastic flowerpots containing loamy sand with approximately 3.0% of humus as the substrate. The seeds of the test plants were sown separately for each species and/or resistant biotype. For the pre-emergence treatment, the active ingredients, which had been suspended or emulsified in water, were applied directly after sowing by means of finely distributing nozzles. The containers were irrigated gently to promote germination and growth and subsequently covered with transparent plastic hoods until the plants had rooted. This cover caused uniform germination of the test plants, unless this had been impaired by the active ingredients. For the post-emergence treatment, the test plants were first grown to a height of 3 to 15 cm, depending on the plant habit, and only then treated with the active ingredients which had been suspended or emulsified in water. For this purpose, the test plants were either sown directly and grown in the same containers, or they were first grown separately as seedlings and transplanted into the test containers a few days prior to treatment. Depending on the species, the plants were kept at 10-25° C. or 20-35° C., respectively. The test period extended to 20 days after treatment. During this time, the plants were tended, and their response to the individual treatments was evaluated. The evaluation was carried out by using a scale from 0 to 100. 100 means no emergence of the plants or complete destruction of at least the above-ground parts, and 0 means no damage, or normal course of growth. Data shown are the mean of two replications.
# AVEFA (Avena fatua) = assay: as above; format: in vivo; conditions: scale 0-100
# Protocol: as §1, §2
smiles,measurement,setting,value
"CCOCCN(C(=O)CCl)C(=C(C)C)c1ccccc1 [Pethoxamid, pethoxamid]","Herbicidal activity against ABUTH, Found","[1]; Pethoxamid 50 g ai/ha alone, scale 0-100",0
same,"Herbicidal activity against ABUTH, Found","[1]; Pethoxamid 100 g ai/ha alone, scale 0-100",0
same,"Herbicidal activity against AVEFA, Found",AVEFA (Avena fatua); Pethoxamid 50 g ai/ha alone,0
same,"Herbicidal activity against AVEFA, Found",AVEFA (Avena fatua); Pethoxamid 100 g ai/ha alone,0
"CP(=O)(O)CC[C@H](N)C(=O)O [L-Glufosinate, (2S)-2-amino-4-[hydroxy(methyl)phosphinoyl]butyric acid]","Herbicidal activity against ABUTH, Found","[1]; L-Glufosinate 75 g ai/ha alone, scale 0-100",0
same,"Herbicidal activity against ABUTH, Found","[1]; L-Glufosinate 150 g ai/ha alone, scale 0-100",55
same,"Herbicidal activity against ABUTH, Found","[1]; L-Glufosinate 200 g ai/ha alone, scale 0-100, mean of two replications",65
same,"Herbicidal activity against AVEFA, Found",AVEFA (Avena fatua); L-Glufosinate 75 g ai/ha alone,0
same,"Herbicidal activity against AVEFA, Found",AVEFA (Avena fatua); L-Glufosinate 150 g ai/ha alone,0
"Cn1nc(C(F)(F)F)c(CS(=O)(=O)C2=NOC(C)(C)C2)c1OC(F)F [Pyroxasulfone, pyroxasulfone]","Herbicidal activity against ABUTH, Found","[1]; Pyroxasulfone 25 g ai/ha alone, scale 0-100",40
same,"Herbicidal activity against ABUTH, Found","[1]; Pyroxasulfone 50 g ai/ha alone, scale 0-100",70
